Measurements as given in patent publication US11607421B2, “Ethanolamine-based lipid biosynthetic compounds, method of making and use thereof” (Metanoi Therapeutics, Inc., priority 2016, dated 2023).
Values after ≈ are worked out from the molar mass of the structure shown.

Experiments:
[1] = Stability in simulated intestinal fluid (SIF); format: in vitro ADME; conditions: 10 μM, SIF pH 6.8, over time (to 120 min)
Protocol: Samples (100 μl) were drawn at 0, 15, 30 and 60 min from SGF reaction-vials and at 0, 30, 60 and 120 min from SIF reaction-vials, quenched with acetonitrile, vortex-mixed, and centrifuged before supernatant analysis by LC-MS/MS analysis. […] For PK studies, a sparse sampling design with 3 mice per time point was used to collect blood samples at 5, 10, 15, 30 min and 1, 2, 3, 4, 5 and 6 h in K2EDTA-coated tubes. The pharmacokinetic parameters (AUClast, Cmax, CL and Vss) were calculated using non-compartmental analysis tool of Phoenix WinNonlin software (version 6.3).
Given the extreme pH and various digestive enzymes, the GI tract presents a harsh environment to any ingested xenobiotic. Thus, many potential drug candidates are degraded in the GI tract, explaining their decreased bioavailability or inability to reach the target at effective concentrations. Simulated gastric fluid (SGF; pH 1.2) and simulated intestinal fluid (SIF; pH 6.8) closely mimic the GI tract environment and are amenable in vitro systems to evaluate degradation of a compound in GI tract (US Pharmacopoia).
Simulated gastric fluid was prepared as per U.S. Pharmacopeia (USP) methods. Sodium chloride (2 g) and pepsin (3.2 g, from porcine stomach mucosa) were dissolved in 7.0 ml hydrochloric acid and Milli-Q water to make up the volume to 1000 ml and the pH was adjusted to 1.2. […]

[2] = Acute toxicity, single oral limit dose; format: in vivo, Sprague-Dawley (SD) rats; conditions: single oral dose of 5 g/kg, five male and five female rats, monitored one week
[3] = parameters: species or system BALB/c mice; conditions: mouse, in vivo, 40 mg/kg
Protocol: Mice were sacrificed after 24, 48 h and 1, 2, 3, 4 weeks and spleens were collected. Total splenocytes were counted after lysis of RBC with RBC lysis buffer. After this, splenocytes where incubated with anti-CD16/CD32 antibody to block Fc receptors and then labeled with anti-CD3-APC, anti-CD4-Alexa488, anti-CD8-Alexa488, anti-DX5-FITC, or anti-CD19-FITC antibodies according to the manufacturer's instructions. Labeled cells were analyzed by flow cytometry using an LSRFortessa Flow cytometer (BD Biosciences, CA). Data from this analysis was analyzed using FlowJo software (TreeStar, OR).

C4-2B = test: MTT cell proliferation assay; format: cell-based; conditions: 0.5 mg/ml Etn, 48 h; range given for PC-3, DU145 and C4-2B together
Protocol: (§1) After 48 h, drug containing medium was replaced by medium containing MTT (tetrazolium bromide) at a concentration of 0.5 mg/ml. The yellow tetrazolium salt is reduced to insoluble purple formazan by viable cells. After 4 h of incubation in dark, formazan crystals produced by viable cells were dissolved by 200 μl DMSO and the amount of formazan crystals formed was quantified by recording the absorbance at 570 nm using multi-well plate reader. […] After 10 days, colonies were fixed with 4% formaldehyde, stained with crystal violet and counted.

CFPAC-1 = test: MTT cell proliferation assay; format: cell-based; conditions: Homo sapiens, 48 h, pH 7.4
Protocol: as §1

MDA-MB-468 = test: MTT cell proliferation assay; format: cell-based; conditions: Homo sapiens, 48 h, pH 7.4
Protocol: as §1

OVCAR-5 = test: MTT cell proliferation assay; format: cell-based; conditions: Homo sapiens, 48 h, pH 7.4
Protocol: as §1

PC-3 cells = test: Oxygen consumption rate (OCR), oxygen electrode; format: cell-based, human; conditions: 2 mg/ml Etn, 48 h, 1×10^6 cells/ml
Protocol: OCR was measured using an oxygen electrode.
OCRs were measured using a computer-interfaced oxygen electrode (Hansatech Instruments, Inc., Norfolk, England) by monitoring the initial rate of oxygen consumption at 37° C. and atmospheric oxygen concentration (230 μM O2).

HCT116 = HCT116 colon tumor xenograft; conditions: 40 mg/kg Etn oral, 2 weeks
DU145 = DU145 prostate tumor xenograft; conditions: 40 mg/kg Etn, oral gavage, 4 weeks
CYP1A2 = CYP1A2 (Homo sapiens, UniProt P05177); test: CYP inhibition in human liver microsomes
CYP2A6 = CYP2A6 (Homo sapiens, UniProt P11509); test: CYP inhibition in human liver microsomes
CYP2C8 = CYP2C8 (Homo sapiens, UniProt P10632); test: CYP inhibition in human liver microsomes
CYP2C9 = CYP2C9 (Homo sapiens, UniProt P11712); test: CYP inhibition in human liver microsomes
Chain of CYP2C9 (P11712 whole entry): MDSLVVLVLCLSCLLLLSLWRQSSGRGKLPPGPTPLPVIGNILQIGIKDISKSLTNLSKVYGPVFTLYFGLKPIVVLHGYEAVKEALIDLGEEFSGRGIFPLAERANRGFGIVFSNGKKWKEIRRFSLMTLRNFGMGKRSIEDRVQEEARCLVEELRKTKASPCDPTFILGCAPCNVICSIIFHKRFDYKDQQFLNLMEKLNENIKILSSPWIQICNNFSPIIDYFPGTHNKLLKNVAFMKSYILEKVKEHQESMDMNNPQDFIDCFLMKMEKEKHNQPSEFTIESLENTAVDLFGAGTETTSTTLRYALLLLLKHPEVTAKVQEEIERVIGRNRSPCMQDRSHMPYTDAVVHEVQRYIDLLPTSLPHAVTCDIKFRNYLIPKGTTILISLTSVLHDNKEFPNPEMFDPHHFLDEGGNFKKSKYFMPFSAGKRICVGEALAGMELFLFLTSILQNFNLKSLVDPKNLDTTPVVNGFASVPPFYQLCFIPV

Chain of CYP2C8 (P10632 whole entry): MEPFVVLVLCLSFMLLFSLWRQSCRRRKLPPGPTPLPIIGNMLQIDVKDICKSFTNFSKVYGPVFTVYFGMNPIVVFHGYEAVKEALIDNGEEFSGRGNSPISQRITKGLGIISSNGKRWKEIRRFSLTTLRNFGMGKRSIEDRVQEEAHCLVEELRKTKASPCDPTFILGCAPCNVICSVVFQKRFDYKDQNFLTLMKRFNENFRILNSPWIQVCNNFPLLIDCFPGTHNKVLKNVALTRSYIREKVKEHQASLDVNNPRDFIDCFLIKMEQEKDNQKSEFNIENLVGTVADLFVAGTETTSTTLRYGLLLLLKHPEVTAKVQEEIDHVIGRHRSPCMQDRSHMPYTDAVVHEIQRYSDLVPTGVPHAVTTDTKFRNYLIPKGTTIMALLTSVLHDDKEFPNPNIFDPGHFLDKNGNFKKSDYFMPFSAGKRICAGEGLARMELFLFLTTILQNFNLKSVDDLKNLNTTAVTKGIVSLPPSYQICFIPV
Chain of CYP1A2 (P05177 whole entry): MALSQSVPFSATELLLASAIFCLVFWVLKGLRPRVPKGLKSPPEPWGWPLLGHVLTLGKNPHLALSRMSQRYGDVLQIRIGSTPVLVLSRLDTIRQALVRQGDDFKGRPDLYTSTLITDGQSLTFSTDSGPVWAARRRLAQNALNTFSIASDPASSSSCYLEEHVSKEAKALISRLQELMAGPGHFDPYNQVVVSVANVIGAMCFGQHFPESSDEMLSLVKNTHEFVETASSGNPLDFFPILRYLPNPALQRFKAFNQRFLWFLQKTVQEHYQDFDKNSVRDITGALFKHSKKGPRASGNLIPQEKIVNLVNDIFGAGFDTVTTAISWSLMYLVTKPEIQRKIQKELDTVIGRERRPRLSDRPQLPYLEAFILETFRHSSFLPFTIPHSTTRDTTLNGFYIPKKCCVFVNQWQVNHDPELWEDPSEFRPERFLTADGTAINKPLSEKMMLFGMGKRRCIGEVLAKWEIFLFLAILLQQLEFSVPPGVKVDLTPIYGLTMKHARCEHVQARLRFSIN
Chain of CYP2A6 (P11509 whole entry): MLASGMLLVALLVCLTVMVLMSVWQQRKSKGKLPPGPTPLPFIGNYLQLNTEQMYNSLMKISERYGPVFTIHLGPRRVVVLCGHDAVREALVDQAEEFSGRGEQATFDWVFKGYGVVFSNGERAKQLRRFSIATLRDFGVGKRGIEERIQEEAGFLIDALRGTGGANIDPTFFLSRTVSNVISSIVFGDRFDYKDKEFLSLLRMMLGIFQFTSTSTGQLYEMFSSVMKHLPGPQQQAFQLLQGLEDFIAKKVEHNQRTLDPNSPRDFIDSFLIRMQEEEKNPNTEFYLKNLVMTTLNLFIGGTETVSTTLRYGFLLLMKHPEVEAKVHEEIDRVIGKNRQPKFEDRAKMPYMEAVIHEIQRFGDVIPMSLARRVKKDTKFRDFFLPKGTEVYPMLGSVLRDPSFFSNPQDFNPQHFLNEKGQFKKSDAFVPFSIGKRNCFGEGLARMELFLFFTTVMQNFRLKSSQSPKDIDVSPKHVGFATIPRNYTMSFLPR

NCCO [Etn, monoethanolamine]
stability in SIF [1]: remained unchanged | acute toxicity [2]: all rats were alive and did not display any sign of distress or toxicity | immunotoxicities [3]: does not induce immunotoxicities | reduction of survival (C4-2B): 30-52% | IC50 (CFPAC-1): 1900 µg/mL (≈ 31.1 mM) | IC50 (MDA-MB-468): 550 µg/mL (≈ 9 mM) | IC50 (OVCAR-5): 290 µg/mL (≈ 4.75 mM) | reduction of OCR compared to controls (PC-3 cells): ~26% | body weight (HCT116): did not change significantly | reduction in tumor volume (DU145): ~42% | reduction in tumor weight (DU145): ~29% | IC50 (CYP1A2): > 100 µM | IC50 (CYP2A6): > 100 µM | IC50 (CYP2C8): > 100 µM | IC50 (CYP2C9): > 100 µM
